{
  "source": "patent US20100152434A1",
  "about": "“Protein Kinase-binding Nucleosides and Associated Methods” (priority 2007, published 2010)",
  "key": {"PC-3": {"test_system": "PC-3", "assay": "cells", "settings": "Homo sapiens, PC-3"}, "SR [1]": {"test_system": "SR"}, "K-562 [2]": {"test_system": "K-562"}, "SW-620 [3]": {"test_system": "SW-620"}, "SW-620 [4]": {"test_system": "SW-620", "assay": "cells", "settings": "Homo sapiens"}, "SK-MEL-28 [5]": {"test_system": "SK-MEL-28"}, "HS 578T [6]": {"test_system": "HS 578T"}, "HL-60(TB) [7]": {"test_system": "HL-60(TB)"}, "cells": {"assay": "cells", "settings": "Homo sapiens, 786-0, read-out: LC50"}, "MOLT-4 [8]": {"test_system": "MOLT-4", "assay": "cells", "settings": "Homo sapiens"}, "HL-60(TB) [9]": {"test_system": "HL-60(TB)", "assay": "cells", "settings": "Homo sapiens"}, "SR [10]": {"test_system": "SR", "assay": "cells", "settings": "Homo sapiens"}, "[11]": {"test_system": "60 different human tumor cell lines (the NCI 60)", "settings": "CCRF-CEM; HL-60(TB); K-562; MOLT-4; RPMI-8226; SR; A549/ATCC; HOP-92; NCI-H460; HCT-116; HCT-15; HT29; SF-268; SF-295; U251; LOX IMVI; SK-MEL-28; SK-MEL-5; IGROV1; OVCAR-3; OVCAR-8; A498; RXF393; MCF7; HS578T"}, "MOLT-4 [12]": {"test_system": "MOLT-4"}, "SK-MEL-28 [13]": {"test_system": "SK-MEL-28", "assay": "cells", "settings": "Homo sapiens"}, "K-562 [14]": {"test_system": "K-562", "assay": "cells", "settings": "Homo sapiens"}, "HS 578T [15]": {"test_system": "HS 578T", "assay": "cells", "settings": "Homo sapiens"}},
  "note": "Where two headings read alike, the source gives them in different places.",
  "data": [
    {"smiles": "CNC(=O)NC[C@H]1O[C@@H](n2cnc3c(NC(=O)Nc4ccccc4)ncnc32)C(O[Si](C)(C)C(C)(C)C)[C@H]1O[Si](C)(C)C(C)(C)C", "note": "(stereo partly drawn) [Compound 25, 2′,3′-Bis-O-(tert-butyldimethylsilyl)-5-deoxy-5′-[(N-methylcarbamoyl)amino]-N^6-(N-phenylcarbamoyl)adenosine]", "values": [
      {"measurement": "GI50", "setting": "PC-3", "value": 2.69, "unit": "µM"},
      {"measurement": "IC50", "setting": "PC-3", "value": "> 100", "unit": "µM"}
    ]},
    {"smiles": "CNC(=O)NC[C@H]1O[C@@H](n2cnc3c(NC(=O)Nc4ccccc4)ncnc32)[C@H](O[Si](C)(C)C(C)(C)C)[C@@H]1CC(=O)N(C)OC", "note": "[Compound 13, 2′-O-(tert-Butyldimethylsilyl)-3′,5′-dideoxy-3′-[(N-methoxy-N-methylcarboxamido)methyl]-5′-[(N-methylcarbamoyl)amino]-N^6-(N-phenylcarbamoyl)adenosine]", "values": [
      {"measurement": "TGI", "setting": "SR [1]", "value": "3.46E−6", "unit": "Molar"},
      {"measurement": "Percent Growth", "setting": "SR [1]; Log10 Concentration −4.0", "value": "−56", "unit": "%"},
      {"measurement": "Percent Growth", "setting": "SR [1]; Log10 Concentration −5.0", "value": "−53", "unit": "%"},
      {"measurement": "Percent Growth", "setting": "SR [1]; Log10 Concentration −6.0", "value": 62, "unit": "%"},
      {"measurement": "Percent Growth", "setting": "SR [1]; Log10 Concentration −7.0", "value": 89, "unit": "%"},
      {"measurement": "Percent Growth", "setting": "SR [1]; Log10 Concentration −8.0", "value": 85, "unit": "%"},
      {"measurement": "TGI", "setting": "K-562 [2]", "value": ">1.00E−4", "unit": "Molar"},
      {"measurement": "Percent Growth", "setting": "K-562 [2]; Log10 Concentration −4.0", "value": 24, "unit": "%"},
      {"measurement": "Percent Growth", "setting": "K-562 [2]; Log10 Concentration −5.0", "value": 17, "unit": "%"},
      {"measurement": "Percent Growth", "setting": "K-562 [2]; Log10 Concentration −6.0", "value": 82, "unit": "%"},
      {"measurement": "Percent Growth", "setting": "K-562 [2]; Log10 Concentration −7.0", "value": 95, "unit": "%"},
      {"measurement": "Percent Growth", "setting": "K-562 [2]; Log10 Concentration −8.0", "value": 95, "unit": "%"},
      {"measurement": "TGI", "setting": "SW-620 [3]", "value": ">1.00E−4", "unit": "Molar"},
      {"measurement": "Percent Growth", "setting": "SW-620 [3]; Log10 Concentration −4.0", "value": 50, "unit": "%"},
      {"measurement": "Percent Growth", "setting": "SW-620 [3]; Log10 Concentration −5.0", "value": 65, "unit": "%"},
      {"measurement": "Percent Growth", "setting": "SW-620 [3]; Log10 Concentration −6.0", "value": 93, "unit": "%"},
      {"measurement": "Percent Growth", "setting": "SW-620 [3]; Log10 Concentration −7.0", "value": 102, "unit": "%"},
      {"measurement": "Percent Growth", "setting": "SW-620 [3]; Log10 Concentration −8.0", "value": 99, "unit": "%"},
      {"measurement": "GI50", "setting": "SW-620 [4]; SW-620", "value": "> 100", "unit": "µM"},
      {"measurement": "CC50", "setting": "SW-620 [4]; SW-620, read-out: LC50", "value": "> 100", "unit": "µM"},
      {"measurement": "TGI", "setting": "SK-MEL-28 [5]", "value": ">1.00E−4", "unit": "Molar"},
      {"measurement": "Percent Growth", "setting": "SK-MEL-28 [5]; Log10 Concentration −4.0", "value": 27, "unit": "%"},
      {"measurement": "Percent Growth", "setting": "SK-MEL-28 [5]; Log10 Concentration −5.0", "value": 44, "unit": "%"},
      {"measurement": "Percent Growth", "setting": "SK-MEL-28 [5]; Log10 Concentration −6.0", "value": 101, "unit": "%"},
      {"measurement": "Percent Growth", "setting": "SK-MEL-28 [5]; Log10 Concentration −7.0", "value": 106, "unit": "%"},
      {"measurement": "Percent Growth", "setting": "SK-MEL-28 [5]; Log10 Concentration −8.0", "value": 97, "unit": "%"},
      {"measurement": "TGI", "setting": "HS 578T [6]", "value": ">1.00E−4", "unit": "Molar"},
      {"measurement": "Percent Growth", "setting": "HS 578T [6]; Log10 Concentration −4.0", "value": 12, "unit": "%"},
      {"measurement": "Percent Growth", "setting": "HS 578T [6]; Log10 Concentration −5.0", "value": 40, "unit": "%"},
      {"measurement": "Percent Growth", "setting": "HS 578T [6]; Log10 Concentration −6.0", "value": 82, "unit": "%"},
      {"measurement": "Percent Growth", "setting": "HS 578T [6]; Log10 Concentration −7.0", "value": 98, "unit": "%"},
      {"measurement": "Percent Growth", "setting": "HS 578T [6]; Log10 Concentration −8.0", "value": 98, "unit": "%"},
      {"measurement": "TGI", "setting": "HL-60(TB) [7]", "value": "4.34E−6", "unit": "Molar"},
      {"measurement": "Percent Growth", "setting": "HL-60(TB) [7]; Log10 Concentration −4.0", "value": "−58", "unit": "%"},
      {"measurement": "Percent Growth", "setting": "HL-60(TB) [7]; Log10 Concentration −5.0", "value": "−48", "unit": "%"},
      {"measurement": "Percent Growth", "setting": "HL-60(TB) [7]; Log10 Concentration −6.0", "value": 84, "unit": "%"},
      {"measurement": "Percent Growth", "setting": "HL-60(TB) [7]; Log10 Concentration −7.0", "value": 86, "unit": "%"},
      {"measurement": "Percent Growth", "setting": "HL-60(TB) [7]; Log10 Concentration −8.0", "value": 95, "unit": "%"},
      {"measurement": "CC50", "setting": "cells", "value": "> 100", "unit": "µM"},
      {"measurement": "GI50", "setting": "MOLT-4 [8]; MOLT-4", "value": 2.23, "unit": "µM"},
      {"measurement": "CC50", "setting": "MOLT-4 [8]; MOLT-4, read-out: LC50", "value": "> 100", "unit": "µM"},
      {"measurement": "GI50", "setting": "HL-60(TB) [9]; HL-60", "value": 1.81, "unit": "µM"},
      {"measurement": "CC50", "setting": "HL-60(TB) [9]; HL-60, read-out: LC50", "value": 16.4, "unit": "µM"},
      {"measurement": "GI50", "setting": "SR [10]", "value": 1.27, "unit": "µM"},
      {"measurement": "CC50", "setting": "SR [10]; read-out: LC50", "value": 9.43, "unit": "µM"},
      {"measurement": "GI50 values (potent anticancer activities)", "setting": "[11]", "value": "low micromolar"},
      {"measurement": "TGI", "setting": "MOLT-4 [12]", "value": "9.36E−6", "unit": "Molar"},
      {"measurement": "Percent Growth", "setting": "MOLT-4 [12]; Log10 Concentration −4.0", "value": "−5", "unit": "%"},
      {"measurement": "Percent Growth", "setting": "MOLT-4 [12]; Log10 Concentration −5.0", "value": "−2", "unit": "%"},
      {"measurement": "Percent Growth", "setting": "MOLT-4 [12]; Log10 Concentration −6.0", "value": 78, "unit": "%"},
      {"measurement": "Percent Growth", "setting": "MOLT-4 [12]; Log10 Concentration −7.0", "value": 90, "unit": "%"},
      {"measurement": "Percent Growth", "setting": "MOLT-4 [12]; Log10 Concentration −8.0", "value": 96, "unit": "%"},
      {"measurement": "GI50", "setting": "SK-MEL-28 [13]; SK-MEL-28", "value": 7.77, "unit": "µM"},
      {"measurement": "CC50", "setting": "SK-MEL-28 [13]; SK-MEL-28, read-out: LC50", "value": "> 100", "unit": "µM"},
      {"measurement": "GI50", "setting": "K-562 [14]; K562", "value": 3.12, "unit": "µM"},
      {"measurement": "CC50", "setting": "K-562 [14]; K562, read-out: LC50", "value": "> 100", "unit": "µM"},
      {"measurement": "GI50", "setting": "HS 578T [15]", "value": 5.79, "unit": "µM"},
      {"measurement": "CC50", "setting": "HS 578T [15]; read-out: LC50", "value": "> 100", "unit": "µM"}
    ]}
  ]
}
